Results published in patent publication US7868204B2, “Inhibitors of histone deacetylase” (MethylGene Inc., priority 2001, dated 2011).
Like-named read-outs stand apart in the source and are kept apart here. One block for each molecule: values may come before it.

Key:
[1] = biological target: T1, cloned recombinant human HDAC-1 (Homo sapiens, UniProt Q13547); assay: Human HDAC-1 enzyme inhibition, Assay 1 ([3H]-acetylated histone substrate, scintillation counting); assay type: biochemical
T1 construct: made in house; host or cells: Baculovirus insect cell expression system
T1 sequence (Q13547 whole entry): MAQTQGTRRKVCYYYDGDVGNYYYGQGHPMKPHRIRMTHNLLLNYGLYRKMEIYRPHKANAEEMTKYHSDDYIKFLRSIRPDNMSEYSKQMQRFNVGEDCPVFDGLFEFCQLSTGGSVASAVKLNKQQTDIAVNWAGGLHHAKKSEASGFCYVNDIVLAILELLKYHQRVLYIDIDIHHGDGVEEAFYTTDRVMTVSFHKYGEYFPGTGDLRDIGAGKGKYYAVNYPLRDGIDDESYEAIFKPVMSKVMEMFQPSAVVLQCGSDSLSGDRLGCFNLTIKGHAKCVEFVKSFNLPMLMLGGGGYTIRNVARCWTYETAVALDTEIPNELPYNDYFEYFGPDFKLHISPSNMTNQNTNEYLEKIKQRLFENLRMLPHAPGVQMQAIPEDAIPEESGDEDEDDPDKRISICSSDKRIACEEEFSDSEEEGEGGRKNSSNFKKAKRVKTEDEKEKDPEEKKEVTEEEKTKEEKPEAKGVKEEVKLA
Experimental: Assay 1. HDAC inhibitors were screened against a cloned recombinant human HDAC-1 enzyme expressed and purified from a Baculovirus insect cell expression system. […] The mixture was extracted with ethyl acetate and the released [^3H]-acetic acid was quantified by scintillation counting. For inhibition studies, the enzyme was preincubated with compounds at 4° C. for 30 minutes prior to initiation of the enzymatic assay. IC50 values for HDAC enzyme inhibitors were determined by performing dose response curves with individual compounds and determining the concentration of inhibitor producing fifty percent of the maximal inhibition.

HCT116 cells = assay: MTT assay; assay type: cell-based; conditions: Homo sapiens, HCT116 cells, 72 hours
Experimental: HCT116 cells (2000/well) were plated into 96-well tissue culture plates one day before compound treatment. Compounds at various concentrations were added to the cells. The cells were incubated for 72 hours at 37° C. in 5% CO2 incubator. MTT (3-[4,5-dimethylthiazol-2-yl]-2,5 diphenyl tetrazolium bromide, Sigma) was added at a final concentration of 0.5 mg/ml and incubated with the cells for 4 hours before one volume of solubilization buffer (50% N,N-dimethylformamide, 20% SDS, pH 4.7) was added onto the cultured cells. […] OD values were converted to cell numbers according to a standard growth curve of the relevant cell line.

[2] = Table 5d, read-out: HDAC-1 IC50
[3] = Table 5F, read-out: Human HDAC-1 IC50
[4] = Table 5c, read-out: Human HDAC-1 IC50
[5] = Table 5b, read-out: Human HDAC-1 IC50

SMILES: COc1cc(/C=C/C(=O)Nc2ccccc2N)cc(OC)c1CNc1cc(OC)c(OC)c(OC)c1 [Cpd 560]
IC50 [1, 2]: 21 µM | IC50 (HCT116 cells; HCT-116, Table 5d): 6 µM

SMILES: Nc1ccccc1NC(=O)/C=C/c1ccc(CNc2cccc([N+](=O)[O-])c2)cc1 [Cpd 551, N-(2-Amino-phenyl)-3-{4-[(3-nitro-phenylamino)-methyl]-phenyl}-acrylamide]
IC50 [1, 2]: 24 µM | IC50 (HCT116 cells; HCT-116, Table 5d): 9 µM

SMILES: Nc1ccccc1NC(=O)/C=C/c1ccc(CNc2cccc(OC(F)(F)F)c2)cc1 [Cpd 506, N-(2-Amino-phenyl)-3-{4-[(3-trifluoromethoxy-phenylamino)-methyl]-phenyl}-acrylamide]
IC50 [1, 2]: 15 µM | IC50 (HCT116 cells; HCT-116, Table 5d): 11 µM

SMILES: NCc1cccc(CNc2ccc(/C=C/C(=O)Nc3ccccc3N)cn2)c1 [Cpd 102, 3-[6-(3-aminomethyl-benzylamino)-pyridin-3-yl]-N-(2-aminophenyl)-acrylamide]
IC50 [1, 4]: 20 µM | IC50 (HCT116 cells; HCT-116, 72 h, Table 5c): 6 µM

SMILES: Nc1ccccc1NC(=O)/C=C/c1ccc(CNc2cccc(S(=O)(=O)NCCCN3CCOCC3)c2)cc1 [Cpd 539, N-(2-Amino-phenyl)-3-(4-{[3-(3-morpholin-4-yl-propylsulfamoyl)-phenylamino]-methyl}-phenyl)-acrylamide]
IC50 [1, 2]: 2 µM | IC50 (HCT116 cells; HCT-116, Table 5d): 10 µM

SMILES: Nc1ccccc1NC(=O)c1ccc(CN2CCOCC2)cc1 [Cpd 328]
IC50 [1, 3]: 17 µM | IC50 (HCT116 cells; HCT-116, 72 h, Table 5F): 10 µM

SMILES: COc1cc(NCc2ccc(/C=C/C(=O)Nc3ccccc3N)cc2)cc(OC)c1 [Cpd 494]
IC50 [1, 2]: 3 µM | IC50 (HCT116 cells; HCT-116, Table 5d): 4 µM

SMILES: CSc1ccc(NCc2ccc(/C=C/C(=O)Nc3ccccc3N)cc2)cc1F [Cpd 565, N-(2-Amino-phenyl)-3-{4-[(3-fluoro4-methylsulfanyl-phenylamino)-methyl]-phenyl}-acrylamide]
IC50 [1, 2]: 5 µM | IC50 (HCT116 cells; HCT-116, Table 5d): 17 µM

SMILES: COc1cc(NCc2ccc(/C=C/C(=O)Nc3cccc(N)c3N)cc2)cc(OC)c1OC [Cpd 564]
IC50 [1, 2]: > 25 µM | IC50 (HCT116 cells; HCT-116, Table 5d): > 25 µM

SMILES: Nc1ccccc1NC(=O)/C=C/c1ccc(NCCCn2ccnc2)nc1 [Cpd 97, N-(2-aminophenyl)-3-[6-(3-imidazol-1-yl-propylamino)-pyridin-3-yl]-acrylamide]
IC50 [1, 4]: 10 µM | IC50 (HCT116 cells; HCT-116, 72 h, Table 5c): 12 µM

SMILES: C[Si](C)(C)C#Cc1ccc(C(=N)Nc2ccccc2N)cc1 [Cpd 198]
IC50 [1, 3]: 24 µM | IC50 (HCT116 cells; HCT-116, Table 5F): 14 µM

SMILES: COc1ccc(CNc2cccc(/C=C/C(=O)Nc3ccccc3N)n2)cc1 [Cpd 51, N-(2-aminophenyl)-3-[6-(4-methoxy-benzylamino)-pyridin-2-yl]-acrylamide]
IC50 [1, 4]: 22 µM | IC50 (HCT116 cells; HCT-116, 72 h, Table 5c): 4 µM

SMILES: Nc1ccccc1NC(=O)/C=C/c1ccc(CNc2ccc(Br)cn2)cc1 [Cpd 557, N-(2-Amino-phenyl)-3-{4-[(5-bromo-pyridin-2-ylamino)-methyl]-phenyl}acrylamide]
IC50 [1, 2]: 4 µM | IC50 (HCT116 cells; HCT-116, Table 5d): 6 µM

SMILES: Nc1ccccc1NC(=O)c1ccc(C#CC2(O)CCCCC2)nc1 [Cpd 463, N-(2-Amino-phenyl)-6-(1-hydroxy-cyclohexylethynyl)-nicotinamide]
IC50 [1, 3]: 12 µM | IC50 (HCT116 cells; HCT-116, 72 h, Table 5F): 6 µM

SMILES: Nc1ccccc1NC(=O)/C=C/c1ccc(CNc2ccc(N3CCOCC3)cc2)cc1 [Cpd 503, N-(2-Amino-phenyl)-3-{4-[(4-morpholin-4-yl-phenylamino)-methyl]-phenyl}-acrylamide]
IC50 [1, 2]: 5 µM | IC50 (HCT116 cells; HCT-116, Table 5d): > 25 µM

SMILES: Cc1ccc(Sc2ccc(C(=O)Nc3ccccc3N)cn2)cc1 [Cpd 464, N-(2-Amino-phenyl)-6-p-tolylsulfanyl-nicotinamide]
IC50 [1, 3]: 4 µM | IC50 (HCT116 cells; HCT-116, 72 h, Table 5F): 11 µM

SMILES: COc1ccc(C(=O)Nc2ccc(/C=C/C(=O)Nc3ccccc3N)cn2)cc1 [Cpd 114]
IC50 [1, 4]: 25 µM | IC50 (HCT116 cells; HCT-116, 72 h, Table 5c): 0.5 µM

SMILES: Nc1ccccc1NC(=O)/C=C/c1ccc(CNc2ccc(Br)cc2)cc1 [Cpd 545, N-(2-Amino-phenyl)-3-{4[(4-bromo-phenylamino)-methyl]-phenyl}-acrylamide]
IC50 [1, 2]: 2 µM | IC50 (HCT116 cells; HCT-116, Table 5d): 12 µM

SMILES: COc1cc(CCc2ccc(/C=C/C(=O)Nc3ccccc3N)cc2)cc(OC)c1OC [Cpd 540, N-(2-Amino-phenyl)-3-{4-[2-(3,4,5-trimethoxy-phenyl)-ethyl]-phenyl}-acrylamide]
IC50 [1, 2]: 10 µM | IC50 (HCT116 cells; HCT-116, Table 5d): 10 µM

SMILES: COc1cc(SCc2ccc(/C=C/C(=O)Nc3ccccc3N)cc2)cc(OC)c1OC [Cpd 500, N-(2-Amino-phenyl)-3-[4-(3,4,5-trimethoxy-phenylsulfanylmethyl)-phenyl]-acrylamide]
IC50 [1, 2]: 23 µM | IC50 (HCT116 cells; HCT-116, Table 5d): 37 µM

SMILES: COc1cc(/C=C/c2ccc(/C=C/C(=O)Nc3ccccc3N)cc2)cc(OC)c1OC [Cpd 536, N-(2-Amino-phenyl)-3-{4-[2-(3,4,5-trimethoxy-phenyl)-vinyl]-phenyl}-acrylamide]
IC50 [1, 2]: 18 µM | IC50 (HCT116 cells; HCT-116, Table 5d): 9 µM

SMILES: Nc1ccccc1NC(=O)/C=C/c1ccc(CNc2cc([N+](=O)[O-])cc([N+](=O)[O-])c2)cc1 [Cpd 495]
IC50 [1, 2]: 4 µM | IC50 (HCT116 cells; HCT-116, Table 5d): 7 µM

Further lines, results first:

IC50 [1, 3]: 1.8 µM | IC50 (HCT116 cells; HCT-116, 72 h, Table 5F): 10 µM
SMILES: N#C/N=C(\NCc1ccc(C(=O)Nc2ccccc2N)cc1)Nc1ccncc1 [Cpd 240]

IC50 [1, 5]: 1 µM | IC50 (HCT116 cells; HCT-116, 72 h, Table 5b): 0.7 µM
SMILES: Nc1ccccc1NC(=O)c1ccc(CNc2nc(NCCc3cccc(Cl)c3)nc(NC3CC3)n2)cc1 [Cpd 477]

IC50 [1, 5]: 3 µM | IC50 (HCT116 cells; HCT-116, 72 h, Table 5b): 0.7 µM
SMILES: COc1ccc(CCNc2nc(NCc3ccc(C(=O)Nc4ccccc4N)cc3)nc(NC3CC3)n2)cc1OC [Cpd 478]

IC50 [1, 5]: 2 µM | IC50 (HCT116 cells; HCT-116, 72 h, Table 5b): 0.3 µM
SMILES: Nc1nc(NCc2ccc(C(=O)Nc3ccccc3N)cc2)nc(-c2ccccc2)n1 [Cpd 484]

IC50 [1, 3]: 4 µM | IC50 (HCT116 cells; HCT-116, 72 h, Table 5F): 11 µM
SMILES: COc1cc(NCc2ccc(C(=O)Nc3ccccc3N)cc2)cc(OC)c1OC [Cpd 571]

IC50 [1, 2]: 15 µM | IC50 (HCT116 cells; HCT-116, Table 5d): > 25 µM
SMILES: Nc1ccccc1NC(=O)/C=C/c1ccc(CNc2cccc(-c3nnn[nH]3)c2)cc1 [Cpd 543, N-(2-Amino-phenyl)-3-(4-{[3-(1H-tetrazol-5-yl)-phenylamino]-methyl}-phenyl)-acrylamide]

IC50 [1, 5]: 0.4 µM | IC50 (HCT116 cells; HCT-116, 72 h, Table 5b): 3 µM
SMILES: Nc1ccccc1NC(=O)c1ccc(CNc2nc(NC3Cc4ccccc4C3)nc(-c3ccccc3)n2)cc1 [Cpd 485, N-(2-amino-phenyl)-4-{[6-(2-indanyl-amino)-4-phenyl-[1,3,5]-triazin-2-yl-amino]-methyl}-benzamide]

IC50 [1, 5]: 7 µM | IC50 (HCT116 cells; HCT-116, 72 h, Table 5b): 6 µM
SMILES: Nc1nc(N)nc(/C=C/c2ccc(C(=O)Nc3ccccc3N)cc2)n1 [Cpd 220]

IC50 [1, 3]: 3 µM | IC50 (HCT116 cells; HCT-116, 72 h, Table 5F): 1 µM
SMILES: Cc1ccc(NCc2ccc(C(=O)Nc3ccccc3N)cc2)c(C)c1 [Cpd 409, N-(2-Amino-phenyl)-4-[(2,4-dimethyl-phenylamino)-methyl]-benzamide]

IC50 [1, 5]: 0.8 µM | IC50 (HCT116 cells; HCT-116, 72 h, Table 5b): 0.5 µM
SMILES: Nc1ccccc1NC(=O)c1ccc(CNc2nc(NCCc3ccccn3)nc(NC3CC3)n2)cc1 [Cpd 480]

IC50 [1, 3]: 3 µM | IC50 (HCT116 cells; HCT-116, 72 h, Table 5F): 2 µM
SMILES: Nc1ccccc1NC(=O)c1ccc(CNc2ccc(SC(F)(F)F)cc2)cc1 [Cpd 450, N-(2-Amino-phenyl)-4-[(4-trifluoromethylsulfanyl-phenylamino)-methyl]-benzamide]

IC50 [1, 3]: 4 µM | IC50 (HCT116 cells; HCT-116, 72 h, Table 5F): 8 µM
SMILES: Nc1ccccc1NC(=O)c1ccc(Sc2ccc3ccccc3n2)nc1 [compound 319, N-(2-Amino-phenyl)-6-(quinolin-2-ylsulfanyl)-nicotinamide]

IC50 [1, 3]: 4 µM | IC50 (HCT116 cells; HCT-116, 72 h, Table 5F): 10 µM
SMILES: Nc1nc(NCc2ccc(C(=O)Nc3ccccc3N)cc2)c2nc[nH]c2n1 [Cpd 331, N-(2-Amino-phenyl)-4-[(2-amino-9H-purin-6-ylamino)-methyl]-benzamide]
